Data reported in patent US9487483B2, “Complement pathway modulators and uses thereof” (priority 2012, dated 2016).

target: Recombinant human factor D (Homo sapiens (Human), UniProt P00746); experiment: biochemical; type: biochemical; settings: Factor D inhibition data using Method 1; substrate Z-Lys-thiobenzyl, fluorescence readout; read-out: IC50
Sequence (P00746 26-253): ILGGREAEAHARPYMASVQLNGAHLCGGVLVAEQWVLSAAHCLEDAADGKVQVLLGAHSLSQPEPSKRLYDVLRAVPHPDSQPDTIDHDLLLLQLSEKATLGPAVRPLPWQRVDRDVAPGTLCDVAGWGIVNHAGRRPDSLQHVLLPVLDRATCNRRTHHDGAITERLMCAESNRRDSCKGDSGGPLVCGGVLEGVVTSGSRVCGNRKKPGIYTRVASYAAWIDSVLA
Protocol: Human Complement Factor D Assay: Method 1
Recombinant human factor D (expressed in E. coli and purified using standard methods) at 10 nM concentration is incubated with test compound at various concentrations for 1 hour at room temperature in 0.1 M Hepes buffer, pH 7.5, containing 1 mM MgCl2, 1 M NaCl and 0.05% CHAPS. […] IC50 values are calculated from percentage of inhibition of complement factor D-activity as a function of test compound concentration.

**Q.** With `Cc1cc2c(C(N)=O)nn(CC(=O)N3[C@@H]4C[C@@H]4C[C@H]3C(=O)N[C@@H]3CCC[C@H](C(F)(F)F)C3)c2cn1` [Example 50, 5-Methyl-1-{2-oxo-2-[(1R,3S,5R)-3-((1R,3S)-3-trifluoromethyl-cyclohexylcarbamoyl)-2-aza-bicyclo[3.1.0]hex-2-yl]ethyl}-1H-pyrazolo[3,4-c]pyridine-3-carboxylic acid amide] as the compound, how does the IC50 read?
**A.** Its IC50 is 118 nM.

**Q.** `C[C@H]1CCC[C@@H](NC(=O)[C@@H]2C[C@H]3C[C@H]3N2C(=O)Cn2nc(C(N)=O)c3ccncc32)C1` [Example 51, 1-{2-[(1R,3S,5R)-3-((1R,3S)-3-Methyl-cyclohexylcarbamoyl)-2-aza-bicyclo[3.1.0]hex-2-yl]-2-oxo-ethyl}-1H-pyrazolo[3,4-c]pyridine-3-carboxylic acid amide] was tested. Which IC50 did it give?
**A.** The IC50 was 226 nM.

**Q.** With `NC(=O)c1nn(CC(=O)N2[C@@H]3C[C@@H]3C[C@H]2C(=O)NC2CCC(F)(F)C2)c2ccccc12` (stereo partly drawn) [Example 52, 1-{2-[(1R,3S,5R)-3-(3,3-Difluoro-cyclopentylcarbamoyl)-2-aza-bicyclo[3.1.0]hex-2-yl]-2-oxo-ethyl}-1H-indazole-3-carboxylic acid amide] as the compound, how does the IC50 read?
**A.** Its IC50 is 999 nM.

**Q.** Which IC50 does the source give for `CC1(C)CCC[C@H](NC(=O)[C@@H]2C[C@H]3C[C@H]3N2C(=O)Cn2nc(C(N)=O)c3ccccc32)C1` [Example 53, 1-{2-[(1R,3S,5R)-3-((S)-3,3-Dimethyl-cyclohexylcarbamoyl)-2-aza-bicyclo[3.1.0]hex-2-yl]-2-oxo-ethyl}-1H-indazole-3-carboxylic acid amide] here?
**A.** Its IC50 is 905 nM.

**Q.** For `CC1(C)CCC[C@@H](NC(=O)[C@@H]2C[C@H]3C[C@H]3N2C(=O)Cn2nc(C(N)=O)c3ccccc32)C1` [Example 54, 1-{2-[(1R,3S,5R)-3-((R)-3,3-Dimethyl-cyclohexylcarbamoyl)-2-aza-bicyclo[3.1.0]hex-2-yl]-2-oxo-ethyl}-1H-indazole-3-carboxylic acid amide], which IC50 is on record?
**A.** Its IC50 is 57 nM.

**Q.** Which IC50 does the source give for `CC1(C)CCC[C@H](NC(=O)[C@@H]2C[C@H]3C[C@H]3N2C(=O)Cn2nc(C(N)=O)c3ccncc32)C1` [Example 55, 1-{2-[(1R,3S,5R)-3-((S)-3,3-Dimethyl-cyclohexylcarbamoyl)-2-aza-bicyclo[3.1.0]hex-2-yl]-2-oxo-ethyl}-1H-pyrazolo[3,4-c]pyridine-3-carboxylic acid amide] here?
**A.** Its IC50 is 2210 nM.

**Q.** For `CC1(C)CCC[C@@H](NC(=O)[C@@H]2C[C@H]3C[C@H]3N2C(=O)Cn2nc(C(N)=O)c3ccncc32)C1` [Example 56, 1-{2-[(1R,3S,5R)-3-((R)-3,3-Dimethyl-cyclohexylcarbamoyl)-2-aza-bicyclo[3.1.0]hex-2-yl]-2-oxo-ethyl}-1H-pyrazolo[3,4-c]pyridine-3-carboxylic acid amide], which IC50 is on record?
**A.** Its IC50 is 37 nM.

**Q.** For `Cc1ccc2c(c1)c(C(N)=O)nn2CC(=O)N1[C@@H]2C[C@@H]2C[C@H]1C(=O)N[C@@H]1CCCC(C)(C)C1` [Example 59, 1-{2-[(1R,3S,5R)-3-((R)-3,3-Dimethyl-cyclohexylcarbamoyl)-2-aza-bicyclo[3.1.0]hex-2-yl]-2-oxo-ethyl}-5-methyl-1H-indazole-3-carboxylic acid amide], which IC50 is on record?
**A.** The IC50 was 43 nM.

**Q.** For `CC1(C)CCC[C@@H](NC(=O)[C@@H]2C[C@H]3C[C@H]3N2C(=O)Cn2nc(C(N)=O)c3ccc(F)cc32)C1` [Example 60, 1-{2-[(1R,3S,5R)-3-((R)-3,3-Dimethyl-cyclohexylcarbamoyl)-2-aza-bicyclo[3.1.0]hex-2-yl]-2-oxo-ethyl}-6-fluoro-1H-indazole-3-carboxylic acid amide], which IC50 is on record?
**A.** Its IC50 is 22 nM.

**Q.** Which IC50 does the source give for `CC1(C)CCC[C@@H](NC(=O)[C@@H]2C[C@H]3C[C@H]3N2C(=O)Cn2nc(C(N)=O)c3ccc(Cl)cc32)C1` [Example 62, 6-Chloro-1-{2-[(1R,3S,5R)-3-((R)-3,3-dimethyl-cyclohexylcarbamoyl)-2-aza-bicyclo[3.1.0]hex-2-yl]-2-oxo-ethyl}-1H-indazole-3-carboxylic acid amide] here?
**A.** The IC50 was 24 nM.

**Q.** `Cc1cc2c(C(N)=O)nn(CC(=O)N3[C@@H]4C[C@@H]4C[C@H]3C(=O)N[C@@H]3CCCC(C)(C)C3)c2cn1` [Example 63, 1-{2-[(1R,3S,5R)-3-((R)-3,3-Dimethyl-cyclohexylcarbamoyl)-2-aza-bicyclo[3.1.0]hex-2-yl]-2-oxo-ethyl}-5-methyl-1H-pyrazolo[3,4-c] pyridine-3-carboxylic acid amide] was tested. Which IC50 did it give?
**A.** The IC50 was 49 nM.

**Q.** With `CCc1cc2c(C(N)=O)nn(CC(=O)N3[C@@H]4C[C@@H]4C[C@H]3C(=O)N[C@@H]3CCCC(C)(C)C3)c2cn1` [Example 64, 1-{2-[(1R,3S,5R)-3-((R)-3,3-Dimethyl-cyclohexylcarbamoyl)-2-aza-bicyclo[3.1.0]hex-2-yl]-2-oxo-ethyl}-5-ethyl-1H-pyrazolo[3,4-c]pyridine-3-carboxylic acid amide] as the compound, how does the IC50 read?
**A.** Its IC50 is 24 nM.

**Q.** How did the IC50 turn out when `CC(=O)c1cn(CC(=O)N2[C@@H]3C[C@@H]3C[C@H]2C(=O)N[C@@H]2CCCC(C)(C)C2)c2nnccc12` [Example 66, (1R,3S,5R)-2-[2-(5-Acetyl-pyrrolo[2,3-c]pyridazin-7-yl)-acetyl]-2-aza-bicyclo[3.1.0] hexane-3-carboxylic acid ((R)-3,3-dimethyl-cyclohexyl)-amide] was run?
**A.** Its IC50 is 1210 nM.

**Q.** How did the IC50 turn out when `CO[C@@H]1CCC[C@@H](NC(=O)[C@@H]2C[C@H]3C[C@H]3N2C(=O)Cn2nc(C(C)=O)c3cc(OCc4ncccn4)ccc32)C1` [Example 69, (1R,3S,5R)-2-{2-[3-Acetyl-5-(pyrimidin-2-ylmethoxy)-indazol-1-yl]-acetyl}-2-aza-bicyclo [3.1.0]hexane-3-carboxylic acid ((1R,3R)-3-methoxy-cyclohexyl)-amide] was run?
**A.** Its IC50 is 143 nM.

**Q.** `CC[C@@H]1CCC[C@H](NC(=O)[C@@H]2C[C@H]3C[C@H]3N2C(=O)Cn2nc(C(N)=O)c3ccncc32)C1` [Example 72, 1-{2-[(1R,3S,5R)-3-((1S,3R)-3-Ethyl-cyclohexylcarbamoyl)-2-aza-bicyclo[3.1.0]hex-2-yl]-2-oxo-ethyl}-1H-pyrazolo[3,4-c]pyridine-3-carboxylic acid amide] was tested. Which IC50 did it give?
**A.** Its IC50 is 1700 nM.

**Q.** With `CC[C@H]1CCC[C@@H](NC(=O)[C@@H]2C[C@H]3C[C@H]3N2C(=O)Cn2nc(C(N)=O)c3ccncc32)C1` [Example 73, 1-{2-[(1R,3S,5R)-3-((1R,3S)-3-ethyl-cyclohexylcarbamoyl)-2-aza-bicyclo[3.1.0]hex-2-yl]-2-oxo-ethyl}-1H-pyrazolo[3,4-c]pyridine-3-carboxylic acid amide] as the compound, how does the IC50 read?
**A.** The IC50 was 29 nM.

**Q.** How did the IC50 turn out when `CC1(C)CCC[C@@H](NC(=O)[C@@H]2C[C@@H](F)CN2C(=O)Cn2nc(C(N)=O)c3ccccc32)C1` [Example 82, 1-{2-[(2S,4R)-2-((R)-3,3-Dimethyl-cyclohexylcarbamoyl)-4-fluoro-pyrrolidin-1-yl]-2-oxo-ethyl}-1H-indazole-3-carboxylic acid amide] was run?
**A.** Its IC50 is 38 nM.

**Q.** For `CC[C@H]1CCC[C@@H](NC(=O)[C@@H]2C[C@H]3C[C@H]3N2C(=O)Cn2nc(C(N)=O)c3cc(C)ncc32)C1` [Example 83, 1-{2-[(1R,3S,5R)-3-((1R,3S)-3-Ethyl-cyclohexylcarbamoyl)-2-aza-bicyclo[3.1.0]hex-2-yl]-2-oxo-ethyl}-5-methyl-1H-pyrazolo[3,4-c]pyridine-3-carboxylic acid amide], which IC50 is on record?
**A.** The IC50 was 50 nM.

**Q.** Which IC50 does the source give for `CO[C@H]1[C@@H](C(=O)N[C@@H]2CCCC(C)(C)C2)N(C(=O)Cn2nc(C(N)=O)c3ccccc32)C[C@@H]1F` [Example 84, 1-{2-[(2S,3S,4S)-2-((R)-3,3-Dimethyl-cyclohexylcarbamoyl)-4-fluoro-3-methoxy-pyrrolidin-1-yl]-2-oxo-ethyl}-1H-indazole-3-carboxylic acid amide] here?
**A.** The IC50 was 60 nM.

**Q.** With `CO[C@H]1[C@@H](C(=O)N[C@H]2CCCC(C)(C)C2)N(C(=O)Cn2nc(C(N)=O)c3ccccc32)C[C@@H]1F` [Example 85, 1-{2-[(2S,3S,4S)-2-((S)-3,3-Dimethyl-cyclohexylcarbamoyl)-4-fluoro-3-methoxy-pyrrolidin-1-yl]-2-oxo-ethyl}-1H-indazole-3-carboxylic acid amide] as the compound, how does the IC50 read?
**A.** The IC50 was 585 nM.

**Q.** For `CC1(C)CCC[C@@H](NC(=O)[C@@H]2[C@@H]3C[C@@H]3CN2C(=O)Cn2nc(C(N)=O)c3ccncc32)C1` [Example 86, 1-{2-[(1R,2S,5S)-2-((R)-3,3-Dimethyl-cyclohexylcarbamoyl)-3-aza-bicyclo[3.1.0]hex-3-yl]-2-oxo-ethyl}-1H-pyrazolo[3,4-c]pyridine-3-carboxylic acid amide], which IC50 is on record?
**A.** Its IC50 is 58 nM.

same assay, conditions: read-out: IC50

**Q.** How did the IC50 turn out when `Cc1nccc2c(C(N)=O)nn(CC(=O)N3[C@@H]4C[C@@H]4C[C@H]3C(=O)N[C@@H]3CCCC(C)(C)C3)c12` [Example 65, 1-{2-[(1R,3S,5R)-3-((R)-3,3-Dimethyl-cyclohexylcarbamoyl)-2-aza-bicyclo[3.1.0]hex-2-yl]-2-oxo-ethyl}-7-methyl-1H-pyrazolo[3,4-c]pyridine-3-carboxylic acid amide] was run?
**A.** Its IC50 is 38 nM.

**Q.** Which IC50 does the source give for `CC1(C)CCC[C@H](NC(=O)[C@@H]2C[C@@H](F)CN2C(=O)Cn2nc(C(N)=O)c3ccncc32)C1` [Example 70, 1-{2-[(2S,4R)-2-((S)-3,3-Dimethyl-cyclohexylcarbamoyl)-4-fluoro-pyrrolidin-1-yl]-2-oxo-ethyl}-1H-pyrazolo[3,4-c]pyridine-3-carboxylic acid amide] here?
**A.** The IC50 was 2090 nM.

**Q.** With `CC1(C)CCC[C@@H](NC(=O)[C@@H]2C[C@@H](F)CN2C(=O)Cn2nc(C(N)=O)c3ccncc32)C1` [Example 71, 1-{2-[(2S,4R)-2-((R)-3,3-Dimethyl-cyclohexylcarbamoyl)-4-fluoro-pyrrolidin-1-yl]-2-oxo-ethyl}-1H-pyrazolo[3,4-c]pyridine-3-carboxylic acid amide] as the compound, how does the IC50 read?
**A.** The IC50 was 41 nM.

**Q.** With `CC1=CC(NC(=O)[C@@H]2C[C@H]3C[C@H]3N2C(=O)Cn2nc(C(N)=O)c3ccccc32)CCC1` (stereo partly drawn) [Example 74, 1-{2-[(1R,3S,5R)-3-(3-Methyl-cyclohex-2-enylcarbamoyl)-2-aza-bicyclo[3.1.0]hex-2-yl]-2-oxo-ethyl}-1H-indazole-3-carboxylic acid amide] as the compound, how does the IC50 read?
**A.** The IC50 was 132 nM.

**Q.** Which IC50 does the source give for `CCc1cc2c(C(N)=O)nn(CC(=O)N3C[C@H](F)C[C@H]3C(=O)N[C@@H]3CCCC(C)(C)C3)c2cn1` [Example 81, 1-{2-[(2S,4R)-2-((R)-3,3-Dimethyl-cyclohexylcarbamoyl)-4-fluoro-pyrrolidin-1-yl]-2-oxo-ethyl}-5-ethyl-1H-pyrazolo[3,4-c]pyridine-3-carboxylic acid amide] here?
**A.** The IC50 was 39 nM.
